Experiment [1] concerns E. cloacae spp. cloacae ATCC 13047. As to the kind of experiment: MIC broth microdilution, E. cloacae. The format is cell-based, Enterobacter cloacae. As to conditions: for MIC: Enterobacter cloacae, ATCC13047, read-out: MIC E. cloacae spp. cloacae ATCC #. (Broth dilution looks for growth in wells or tubes with falling amounts of substance.)
The test system of experiment [2] is A. baumannii ATCC 17978. Nature of the experiment: MIC broth microdilution, A. baumannii. It is filed as cell-based. As to conditions: Acinetobacter baumannii, ATCC17978, read-out: MIC A. baumannii ATCC #. The source says:
(§1) E. coli MG1655 originated from the laboratory collection of Dr. Csaba Pál. […] E. coli K-12 BW25113 single-gene knockout mutant lines ΔdapF, ΔmrcB, ΔsurA, ΔacrB and ΔtolC originated form the Keio collection copy owned by the laboratory of Dr. Csaba Pál.
(§2) Cation-adjusted Mueller Hinton II broth (MHBII) was used for growth of the bacteria under standard laboratory conditions, for antimicrobial susceptibility tests, and for selection of resistant variants. To prepare the MHBII broth, 22 g MHBII powder (containing 3 g beef extract, 17.5 g acid hydrolysate of casein, 1.5 g starch; Becton, Dickinson and Co., Franklin Lakes, NJ, USA) was dissolved in 1 L water. MHBII agar was prepared by addition of 14 g agar (Bacto; Molar Chemicals, Halásztelek, Hungary) to 1 L broth.
(§3) Minimum inhibitory concentrations (MICs) were determined using a standard serial broth microdilution technique, according to the Clinical and Laboratory Standards Institute guidelines. […] For Enterococcus sp., the cells were plated in BHI agar plates, and BHI broth was used to determine the MICs. […] Following the dilutions, each well was seeded with 5 × 10^4 bacterial cells. Each measurement was performed in three parallel replicates, and to avoid possible edge effects in the microwell plates, the outside rows (A, H) were filled with sterile medium. Following the inoculations, the plates were covered with the lids and wrapped in polyethylene plastic bags, to minimize evaporation but to allow O2 transfer. […] After incubation, the OD600 of each well was measured using a microplate reader (Synergy 2; Biotek, Winooski, VT, USA).

The test system of experiment [3] is P. aeruginosa ATCC 27863. As to the kind of experiment: MIC broth microdilution, P. aeruginosa. It is filed as cell-based. Conditions: Pseudomonas aeruginosa.
Excerpt: as §1, §2, §3

The subject of experiment [4] is E. coli ATCC 25922. As to the kind of experiment: MIC broth microdilution, E. coli ATCC 25922. The format is cell-based. As to conditions: Escherichia coli, ATCC25922, read-out: MIC E. coli ATCC #.
Excerpt: as §1, §2, §3

Experiment [5] has as its target T1, E. coli topoisomerase IV (Escherichia coli, UniProt P0AFI2+P20083).
T1 construct: purchased Inspiralis, Norwich, UK
As to the kind of experiment: E. coli topoisomerase IV relaxation assay. It is filed as biochemical. Here is the method:
(§4) The assay for determination of the IC50 values was performed according to previously reported procedures.
(§5) Briefly, inhibitory activities were determined using supercoiling (for DNA gyrase) and relaxation (for topoisomerase IV) assay kits (Inspiralis, Norwich, UK) on streptavidin-coated 96-well microtiter plates from Thermo Scientific Pierce (Thermo Fisher Scientific, Waltham, MA, USA). First, the plates were rehydrated with Wash Buffer and the biotinylated oligonucleotide TFO1 was then immobilized. After washing off the unbound oligonucleotide with Wash Buffer, the enzyme assay was performed. Into each well was added 24 µL of mixture containing 6 µL of Assay Buffer (containing ATP), 0.75 µL of relaxed (for E. coli DNA gyrase supercoiling assay) or supercoiled (for E. coli topoisomerase IV relaxation assay) pNO1 plasmid and 17.25 µL of water. Additionally, 3 µL of a solution of the inhibitor in 10% DMSO containing 0.008% Tween 20 and 3 µL of enzyme (1.5 U) in Dilution Buffer were also added to the wells. […] The TF buffer was added to terminate the enzymatic reaction and after additional incubation for 30 min at room temperature, which allowed for triplex formation (biotin–oligonucleotide–plasmid), the unbound plasmid was washed off using TF buffer. Promega Diamond dye in T10 buffer was then added. […] Here, the compounds were diluted using 2-fold serial dilution steps of the given compound. GraphPad Prism 6.0 software was used to calculate the IC50 values, which were determined in at least two independent measurements, and their means are given as the final result. […] Dose-response curves can be found in Supplementary Materials.

Experiment [6] deals with K. pneumoniae ATCC 10031. As to the kind of experiment: MIC broth microdilution, K. pneumoniae. Conditions: Klebsiella pneumoniae, ATCC10031, read-out: MIC K. pneumoniae ATCC #. It is filed as cell-based.
Excerpt: as §1, §2, §3

Experiment [7] deals with E. coli BW25113 WT. Nature of the experiment: MIC, E. coli BW25113 wild-type. It is filed as cell-based. Conditions: Escherichia coli, BW25113, read-out: Minimum Inhibitory Concentration E. coli BW# WT.
Excerpt: as §1, §2, §3

Experiment [8] deals with T2, E. coli DNA gyrase (Escherichia coli, UniProt P0AES4+P0AES6).
T2 construct: purchased Inspiralis, Norwich, UK
As to the kind of experiment: E. coli DNA gyrase supercoiling assay. It is filed as biochemical. The method, then: as §4, §5

The subject of experiment [9] is E. coli BW25113 ΔdapF. It is filed as cell-based, Escherichia coli.
Excerpt: as §1, §2, §3

The subject of experiment [10] is E. coli BW25113 ΔsurA. The format is cell-based, Escherichia coli.
Excerpt: as §1, §2, §3

Experiment [11] deals with E. coli BW25113 ΔacrB. The format is cell-based, Escherichia coli.
Excerpt: as §1, §2, §3

Experiment [12] has as its system E. coli BW25113 ΔtolC. It is filed as cell-based, Escherichia coli.
Excerpt: as §1, §2, §3

The subject of experiment [13] is E. coli BW25113 ΔmrcB. It is filed as cell-based, Escherichia coli.
Excerpt: as §1, §2, §3

The subject of experiment [14] is E. coli MG1655 GyrA S83L, D87N ParC S80I, E84G. Nature of the experiment: microbe, parasite or virus in culture. The format is cell-based, Escherichia coli.
Excerpt: as §1, §2, §3
(§6) These mutated amino acids are the most common sites for target-based resistance in E. coli.

Experiment [15] concerns E. coli MG1655 GyrB R136C. Nature of the experiment: microbe, parasite or virus in culture. The format is cell-based, Escherichia coli.
Excerpt: as §1, §2, §3, §6

Experiment [16] has as its system E. coli MG1655 WT. As to the kind of experiment: MIC, E. coli MG1655 wild-type with PAβN. The format is cell-based, Escherichia coli.
Excerpt: as §1, §2
as §3, with “USA). […]” for “USA).”

The mark [17] stands for this setting: molar conversion in parentheses.
Where [18] appears, read: ATCC27863, 18 h, read-out: MIC P. aeruginosa ATCC #.
The mark [19] stands for this setting: ATCC27863, read-out: MIC P. aeruginosa ATCC #, molar conversion in parentheses, read-out: MIC P. aeruginosa ATCC 27863.
[20] abbreviates: in the presence of 50 µg/mL PAβN.

Results on three compounds are retold here after publication PMC7822030, “Hybrid Inhibitors of DNA Gyrase A and B: Design, Synthesis and Evaluation” (Pharmaceutics, 2020).

Where two headings read alike, the source gives them in different places. Where only a bound is given, the exact number is not on record here.

What is called IC50 is the concentration that gives 50% inhibition.

For `Cc1[nH]c(C(=O)Nc2nc3ccc(C(=O)O)cc3s2)c(Cl)c1Cl` [Compound 1a, 2-(3,4-dichloro-5-methyl-1H-pyrrole-2-carboxamido)benzo[d]thiazole-6-carboxylic acid, reference compound], in [1], the “Antibacterial activity against E. cloacae (in words)” value was “inactive”. The MIC in experiment [1] (broth microdilution, 18 h) was over 64 µg/mL; in experiment [1] (setting [17]) it was over 173 µM; in experiment [2] (broth microdilution, 18 h) it was 4 µg/mL; in [2] (setting [17]) it was 10.8 µM; in [3] (setting [18]) it was 8 µg/mL; in experiment [3] (setting [19]) it was 21.6 µM. For the same compound, the MIC in [4] (broth microdilution, 18 h) is 4 µg/mL; in [4] (setting [17]) it was 10.8 µM; in experiment [6] (broth microdilution, 18 h), 1 µg/mL; in experiment [6] (setting [17]), 2.7 µM. The compound also yielded an IC50 in [5] of 500 ± 280 nM.
Consider `Cc1[nH]c(C(=O)Nc2nc3c(OCc4ccccc4)cc(C(=O)O)cc3s2)c(Cl)c1Cl` [Compound 1b, reference compound], for which, in [1], the “Antibacterial activity against E. cloacae (in words)” value is “inactive”. The MIC is over 64 µg/mL in experiment [1] (broth microdilution, 18 h); over 134 µM in experiment [1] (setting [17]); 2 µg/mL in experiment [2] (broth microdilution, 18 h); 4.2 µM in experiment [2] (setting [17]); 2 µg/mL in experiment [3] (setting [18]); 4.2 µM in [3] (setting [19]). The MIC in [4] (broth microdilution, 18 h) was determined as 16 µg/mL; in [4] (setting [17]), 33.6 µM; in experiment [6] (broth microdilution, 18 h), 4 µg/mL; in experiment [6] (setting [17]), 8.4 µM.
With `Cc1[nH]c(C(=O)Nc2nc3ccc(C(=O)NCC(=O)N4CCN(c5cc6c(cc5F)c(=O)c(C(=O)O)cn6C5CC5)CC4)cc3s2)c(Cl)c1Cl` [Compound 7a, 1-Cyclopropyl-7-(4-((2-(3,4-dichloro-5-methyl-1H-pyrrole-2-carboxamido)benzo[d]thiazole-6-carbonyl)glycyl)piperazin-1-yl)-6-fluoro-4-oxo-1,4-dihydroquinoline-3-carboxylic acid], the MIC in [1] (broth microdilution, 18 h) was over 64 µg/mL; in [1] (setting [17]) it was over 86.4 µM; in experiment [2] (broth microdilution, 18 h), over 64 µg/mL; in experiment [2] (setting [17]), over 86.4 µM; in experiment [3] (setting [18]), over 64 µg/mL; in experiment [3] (setting [19]) it was over 86.4 µM. Moreover, the MIC in experiment [7] (setting [17]) was over 86.4 µM; in experiment [7] (wild-type) it was over 64 µg/mL; in [14] (Escherichia coli, MG1655, read-out: Minimum Inhibitory Concentration E. coli MG# GyrA S83L, D87N ParC S80I, E84G) it was 0.675 µM; in experiment [15] (Escherichia coli, MG1655, read-out: Minimum Inhibitory Concentration E. coli MG# GyrB R#C), 2.7 µM; in experiment [4] (broth microdilution, 18 h), over 64 µg/mL; in experiment [4] (setting [17]) it was over 86.4 µM. For the same compound, the MIC is 1.35 µM in [16] (Escherichia coli, MG1655, read-out: Minimum Inhibitory Concentration E. coli MG# WT, 50 µg/mL PAβN, molar conversion in parentheses); 4 µg/mL in [6] (broth microdilution, 18 h); 5.4 µM in experiment [6] (setting [17]). For the same compound, the half-inhibitory concentration (IC50) was 92 ± 10 nM in experiment [8] and 2500 ± 1300 nM in experiment [5]. Also, the “Minimum Inhibitory Concentration E. coli BW25113 ΔdapF” value is given as over 64 µg/mL in experiment [9] (impaired cell-wall mutant) and “(>86.4 µM)” in experiment [9] (setting [17]). Further, the entries for the “Minimum Inhibitory Concentration E. coli BW25113 ΔsurA” value in experiment [10] (impaired cell-wall mutant) and in experiment [10] (setting [17]) were over 64 µg/mL and “(>86.4 µM)”, respectively. Moreover, the results for the “Minimum Inhibitory Concentration E. coli BW25113 ΔacrB” value in experiment [11] (efflux pump mutant) and in experiment [11] (setting [17]) were over 64 µg/mL and “(>86.4 µM)”, respectively. Further, the “Minimum Inhibitory Concentration E. coli BW25113 ΔtolC” value in experiment [12] (efflux pump mutant) is 2 µg/mL; in [12] (setting [17]), “(2.70 µM)”. Further, the “MIC change, ΔtolC mutant versus wild-type E. coli BW25113” value in experiment [12] (improvement of MIC in impaired efflux pump mutant) is given as “above 32 fold”. Also, the “Minimum Inhibitory Concentration E. coli BW25113 ΔmrcB” value is reported as over 64 µg/mL in [13] (impaired cell-wall mutant) and “(>86.4 µM)” in experiment [13] (setting [17]). In addition, the “Minimum Inhibitory Concentration E. coli MG1655 GyrA S83L, D87N ParC S80I, E84G” value in [14] (setting [20]) turned out to be 0.5 µg/mL. In addition, the “Minimum Inhibitory Concentration E. coli MG1655 GyrB R136C” value in experiment [15] (setting [20]) was 2 µg/mL. In experiment [5] (relaxation assay), the “Inhibition of topoisomerase IV (in words)” value was “low micromolar”. Further, the “Minimum Inhibitory Concentration E. coli MG1655 WT” value in [16] (setting [20]) came out at 1 µg/mL.
